Data taken from patent publication US20170095504A1, “Inhibitors of Kidney Stone Formation and Calcium Deposition” (priority 2015, published 2017).

Tests used:
[1] = Effect of inhibitors on crystal morphology (COM/COD/COT); details: 100 mg/L; 1 hr after start of reaction; control yields COM
[2] = Calcium binding (free Ca in solution before oxalate addition); type: physicochemical; details: inhibitor 100 mg/L; ~1.0 mM if no Ca binding occurs; control 1.02 mM
Protocol: Calcium binding was determined before oxalate addition. Crystals were obtained after the end of the kinetic experiments (1 hour), filtered, dried and tested by FTIR. The major polymorph was reported; other phases may be present but their peaks were not distinguishable in IR. Initial calcium and oxalate concentrations was the same, approximately 1 mM in pH buffered medium containing 10 mM HEPES and 150 mM NaCl. […] The data are Ca recordings obtained from solutions containing the inhibitor (100 mg/L) and calcium. The Ca ion concentration should be ˜1.0 mM if no Ca binding occurs. This could be related to the type of adsorption on the crystals as reported in a later section. Some of our proposed KSIs are showing significant Ca binding activity, and these are likely to be the best candidates as inhibitors.

Compound: O=C(O)CN(CCN(CC(=O)O)CC(=O)O)CCN(CC(=O)O)CC(=O)O [DTPA, diethylenetriaminepentaacetic acid]
- crystal phase obtained (COM, COD or COT) [1]: COT
- Ca2+ concentration in the presence of inhibitors at 100 mg/L (PPM) [2]: 0.71 mM
